Experimental findings from ChEMBL document CHEMBL5233225, “Para-sulfonatocalix[n]arene-based biomaterials: Recent progress in pharmaceutical and biological applications” (Eur J Med Chem, 2020) are described below.

The subject of one data set is K562. In words: Photodynamic antitumor activity against human K562 cells assessed as mortality rate preincubated for 24 hrs followed by irradiation by UV-VIS spectrophotometer. It counts as functional.
Data set [1] is described as follows: Haemolytic activity in human RBC measured after 30 mins by spectrophotometric analysis. It counts as toxicity, cell-based, Erythrocyte. As to conditions: red blood cells (RBC), read-out: Activity.

`O=S(=O)(O)c1cc2c(O)c(c1)Cc1cc(S(=O)(=O)O)cc(c1O)Cc1cc(S(=O)(=O)O)cc(c1O)Cc1cc(S(=O)(=O)O)cc(c1O)Cc1cc(S(=O)(=O)O)cc(c1O)Cc1cc(S(=O)(=O)O)cc(c1O)Cc1cc(S(=O)(=O)O)cc(c1O)Cc1cc(S(=O)(=O)O)cc(c1O)C2`: the Activity in the data set on K562 was determined as 30%. Further, in data set [1], the hemolysis at 0.5 h was 29%.

As for `O=S(=O)(O)c1cc2c(O)c(c1)Cc1cc(S(=O)(=O)O)cc(c1O)Cc1cc(S(=O)(=O)O)cc(c1O)Cc1cc(S(=O)(=O)O)cc(c1O)Cc1cc(S(=O)(=O)O)cc(c1O)Cc1cc(S(=O)(=O)O)cc(c1O)C2`, the Activity with K562 is 60%. For the same compound, the hemolysis at 0.5 h in data set [1] is 12%.
